Tests used:
[1] = tested on: rats and mice; design: method as in PMID 21438738, PMID 12075117, PMID 18445619; settings: cited from earlier work
[2] = tested on: oestrogen receptor α; design: method as in PMID 22927406; settings: in the presence of E2; cited from earlier work
[3] = tested on: intact female BALB/c mice; design: method as in PMID 9359486; settings: 28 days of oral administration, intact female BALB/c mice ∼50 days old; cited from earlier work
[4] = tested on: female CD-1 mice; assay: Exposure experiment through drinking water; format: in vivo; settings: 10-day exposure via drinking water
Protocol: Mice with a maximal difference in body weight of 1 g were selected for the experiments and randomly assigned to either the treatment or control groups. […] The animals were fed ad libitum an oestrogen-free diet from Trophic Animal Feed High-tech Co., Ltd. (Nantong, China), and drinking water was provided ad libitum in glass bottles. Before the experiments, the mice were randomly assigned to five groups (n=8). Ultra-pure water was used as a control. FULV was dissolved in ultra-pure water to a concentration of 100 ng l^−1 and used as a positive control. […] Two plastic drinking bottles labelled ‘BPA-free', of different brands, were purchased and denoted Bottle A and Bottle B. The plastic bottles were filled with boiling ultra-pure water from a stainless steel electric water heater and allowed to cool down to room temperature before the animal experiment. The BHPF levels in the cooled boiled waters from Bottle A, Bottle B and the stainless steel electric water heater were determined by GC–MS. No BHPF was detected in the cooled boiled water from the stainless steel electric water heater. The cooled boiled waters from Bottle A and Bottle B were transferred to glass bottles during the experiment. The exposure experiment was performed for 10 days beginning on PND 24. After the period of exposure, the mice were weighed and killed in turns for each group, whereby in each turn only one mouse in a group was killed. Blood was collected by cardiac puncture soon after each animal was killed, and the uteri were removed, blotted and weighed by one experimenter to reduce the risk of bias in the data collection and immediately frozen in liquid nitrogen for gene expression analysis. The relative uterine weight was calculated to evaluate the anti-uterotrophic activity. […] The serum BHPF levels were analysed by GC–MS using the same method as that for human serum. The gene expressions of sprr2a and sprr2b in the uteri were determined by Q-RT-PCR.

[5] = tested on: female CD-1 mice; assay: Improved anti-uterotrophic assay, daily oral gavage for 10 days beginning on PND 24; format: in vivo; settings: daily oral gavage for 10 days
Protocol: The animals were fed ad libitum with a basic diet from the Laboratory Animal Center of the Academy of Military Medical Sciences (Beijing, China), and drinking water was provided ad libitum. […] The volume of vehicle or chemical solutions administered was adjusted daily based on body weight measured during the dosing period according to the volume-body weight ratio of 5 ml kg^−1 bw.

[6] = tested on: rats; design: method as in PMID 8773425; settings: oral, before implantation on day 2 of pregnancy; cited from earlier work
[7] = tested on: CD-1 mice; assay: Subchronic and reproductive toxicity tests; settings: mouse, in vivo
Protocol: Immature CD-1 mice (20 days old) were obtained from Experimental Animal Tech Co. of Weitonglihua (Beijing, China) and acclimatized in an experimental environment with a temperature of 22 °C±2 °C, relative humidity between 40 and 60%, and artificial lighting in a 12 h/12 h light-dark cycle. The animals were fed ad libitum with a basic diet from the Laboratory Animal Center of the Academy of Military Medical Sciences (Beijing, China), and drinking water was provided ad libitum. […] The animals were housed five to a cage until the pairing date. The treatment via oral gavage of each mouse was performed once every 3 days beginning on PND 24. The chemicals were dissolved in peanut oil to the appropriate concentrations. The volume of vehicle or chemical solutions administered was adjusted daily based on body weight measured during the dosing period according to the volume-body weight ratio of 5 ml kg^−1 bw. On PND 60, 10 females of each group were weighed and killed by cervical dislocation. The uteri, ovaries, livers, kidneys and spleens were weighed and collected for histological analysis. At the age of PND 77, males and females were paired. Each morning, the females were examined for the presence of vaginal plugs. Gestational day 1 was defined as the day on which a vaginal plug was found. In cases where pairing was unsuccessful, females were re-mated with proven males of the same group, except that females in the 1.2 mg kg^−1 TAM group were re-mated with proven males of the control group. After a 7-day mating period, the males were weighed and killed, and organs were weighed and collected for further analysis. Cauda epididymal sperm was collected from each mouse and observed under a trinocular microscope (Olympus BX53) in physiological saline. A microscopic video was recorded and analysed for sperm quality evaluation. The treatment via oral gavage was continued for the females until day 19 of pregnancy. On post-partum days 0 and 4, the weights of the dams and pups were recorded and the pups were checked for abnormalities. On post-partum day 4, the dams were weighed and killed, and their organs were weighed and collected for further analysis. The ovaries and uteri were examined for the numbers of corpora lutea and implantation sites, respectively. Finally, the non-pregnant and nulliparous females were killed for histopathological analysis. For histological examination, organs and tissues were fixed in formalin fixation, embedded in paraffin, and sectioned serially at 5 μm. Slides were stained with hematoxylin and eosin (H&E), and observed under a light microscope (Olympus BX53).

In the case of CC(C)(c1ccc(O)cc1)c1ccc(O)cc1 [BPA, bisphenol A], the “reproductive/developmental NOAEL” value [1] is given as 50 mg kg^−1 bw day^−1 and the “systemic no-observed-adverse-effect level (NOAEL)” value [1] is given as 5 mg kg^−1 bw day^−1.
For Cc1cc(C(C)(C)c2ccc(O)c(C)c2)ccc1O [BPC, bisphenol C], the antagonistic activity [2] is given as “almost full antagonistic activity”.
In the case of CC1=C(c2ccc(OC(=O)C(C)(C)C)cc2)[C@H](c2ccc(OCCN3CCCCC3)cc2)Oc2cc(OC(=O)C(C)(C)C)ccc21 [EM-800], the effect on uterus [3] is given as “reduce uterine weights and cause atrophy of the endometrium”.
For C[C@]12CC[C@@H]3c4ccc(O)cc4C[C@@H](CCCCCCCCC[S+]([O-])CCCC(F)(F)C(F)(F)F)[C@H]3[C@@H]1CC[C@@H]2O (stereo partly shown) [FULV, fulvestrant], the “relative uterine weight, % that of the control” value ([4]; 100 ng l^−1 BHPF or FULV, Bottle A 124.35, Bottle B 23.81 ng l^−1 BHPF, P>0.05) was 77.89%±37.50, the “expression of sprr2a in the uteri (Q-RT-PCR)” value ([4]; no statistically significant difference (P>0.05)) was “decreased” and the “expression of sprr2b in the uteri (Q-RT-PCR)” value ([4]; vs control) was “significantly lower”. The relative uterine weights [5] was “decreased in a dose-dependent manner”.
In the case of CN(C)CCOc1ccc([C@H]2C[C@]3(C)[C@@H](O)CC[C@H]3[C@@H]3CCc4cc(O)ccc4[C@H]32)cc1 [RU39411], the “reproductive effects, high doses” value [6] is given as “prevented pregnancy in all animals” and the “reproductive effects, low doses” value [6] is given as “reduced the litter sizes and weights and induced embryonic absorption in some animals”.
For CC/C(=C(\c1ccccc1)c1ccc(OCCN(C)C)cc1)c1ccccc1 [TAM, tamoxifen, reference compound], the “analysis of ovary sections” value [7] was “retarded follicular development and reduced the numbers of corpora lutea”, the “histopathological examination of ovaries” value [7] was “haemorrhagic ovary cysts occurred” and the “histopathological examination of uteri” value [7] was “serious atrophic endometria”. For the same molecule, the sperm quality [7] was “No obvious adverse effects”, the “reproductive effects, high doses” value [6] was “prevented pregnancy in all animals” and the “reproductive effects, low doses” value [6] was “reduced the litter sizes and weights and induced embryonic absorption in some animals”.
